The experiment concerns the target T1, Inhibitor of nuclear factor kappa-B kinase subunit beta (Homo sapiens, UniProt O14920).
T1 sequence (O14920 whole entry): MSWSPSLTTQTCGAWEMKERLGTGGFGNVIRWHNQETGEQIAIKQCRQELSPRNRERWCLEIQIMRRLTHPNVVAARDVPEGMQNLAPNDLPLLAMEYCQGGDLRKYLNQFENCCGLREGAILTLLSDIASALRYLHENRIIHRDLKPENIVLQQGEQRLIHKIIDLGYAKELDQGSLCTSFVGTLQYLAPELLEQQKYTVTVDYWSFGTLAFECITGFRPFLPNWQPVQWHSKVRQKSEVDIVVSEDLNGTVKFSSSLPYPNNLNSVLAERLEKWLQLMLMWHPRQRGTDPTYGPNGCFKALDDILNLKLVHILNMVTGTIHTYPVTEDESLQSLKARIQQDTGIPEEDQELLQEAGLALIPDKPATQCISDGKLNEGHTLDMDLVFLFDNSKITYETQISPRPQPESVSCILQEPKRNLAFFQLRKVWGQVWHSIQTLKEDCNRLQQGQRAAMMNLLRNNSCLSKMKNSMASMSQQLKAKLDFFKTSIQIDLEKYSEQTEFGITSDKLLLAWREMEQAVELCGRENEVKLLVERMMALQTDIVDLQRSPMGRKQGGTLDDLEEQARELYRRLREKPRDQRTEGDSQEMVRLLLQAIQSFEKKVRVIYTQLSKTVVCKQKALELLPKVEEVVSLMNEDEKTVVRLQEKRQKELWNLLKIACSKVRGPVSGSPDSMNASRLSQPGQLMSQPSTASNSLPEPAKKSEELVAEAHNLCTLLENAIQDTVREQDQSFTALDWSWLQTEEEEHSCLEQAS
As to the kind of experiment: ChEBML_1690031. How it is done: Inhibition of recombinant full length human IKKbeta expressed in baculovirus infected sf9 insect cells using biotinylated IkBalpha as substrate after 60 mins by DELFIA

One may read the Ki as the dissociation constant of the complex between target and ligand, obtained from inhibition or displacement. The low end stands for tighter binding, the high end for weaker binding. In turn, `N#Cc1c[nH]c2nc(N)nc(N[C@@H]3CC[C@@H](O)[C@H]3O)c12` gave a Ki above 30 µM.

Source of the values: BindingDB's records for doi:10.1021/acs.jmedchem.7b00484 (University of Strathclyde, 2017).
